In brackets after ≈: the same amount, converted by molar mass. Activity calls are given as the source filed them. No cut-off for these calls is given here.
Key:
[1] = system: Meloidogyne javanica; test: Nematicidal activity against Meloidogyne javanica J2 (root-knot nematode) assessed as mortality rate compound treated as vapor at 25 +/- 2 degC; format: functional; conditions: for LC50: Meloidogyne javanica
[2] = system: Meloidogyne javanica; test: Nematicidal activity against Meloidogyne javanica J2 (root-knot nematode) assessed as mortality rate at 5 ug/mL (vapor concentration in the air, weight/volume) at 25 +/- 2 degC measured after 72 hr; format: functional
[3] = system: Meloidogyne javanica; test: Nematicidal activity against Meloidogyne javanica J2 (root-knot nematode) assessed as mortality rate at 5 ug/mL (vapor concentration in the air, weight/volume) at 25 +/- 2 degC measured after 48 hr; format: functional
[4] = system: Meloidogyne javanica; test: Nematicidal activity against Meloidogyne javanica (root-knot nematode) infected in cucumber field assessed as reduction in root gallling at 5 kg/ha by field plot experiment; format: functional, organism-based
[5] = system: Meloidogyne javanica; test: Nematicidal activity against Meloidogyne javanica (root-knot nematode) inoculated in cucumber plant assessed as reduction in galls compound treated in soil 7 days before planting by pot experiment; format: functional
[6] = system: Meloidogyne javanica; test: Nematicidal activity against Meloidogyne javanica (root-knot nematode) inoculated in cucumber plant assessed as reduction in galls at 2 ml/kg of soil dosed 7 days before planting by pot experiment; format: functional, organism-based
[7] = system: Meloidogyne javanica; test: Nematicidal activity against Meloidogyne javanica (root-knot nematode) inoculated in cucumber plant assessed as reduction in galls at 1 ml/kg of soil dosed 7 days before planting by pot experiment; format: functional, organism-based
[8] = system: Meloidogyne javanica; test: Nematicidal activity against Meloidogyne javanica (root-knot nematode) inoculated in cucumber plant assessed as reduction in Meloidogyne javanica (root-knot nematode)numbers at 0.5 to 2 ml/kg of soil dosed 7 days before planting by pot experiment; format: functional, organism-based
[9] = system: Meloidogyne javanica; test: Nematicidal activity against Meloidogyne javanica (root-knot nematode) inoculated in cucumber plant assessed as reduction in galls at 0.5 ml/kg of soil dosed 7 days before planting by pot experiment; format: functional, organism-based
[10] = system: Meloidogyne javanica; test: Nematicidal activity against Meloidogyne javanica (root-knot nematode) infected in cucumber field assessed as reduction in root gallling at 2 kg/ha by field plot experiment; format: functional, organism-based

SMILES	LC90 [1]	LC50 [1]	mortality at 5 µg/mL [2]	mortality at 5 µg/mL [3]	inhibition [4]	LD50 [5]	Activity [6]	Activity [7]	inhibition [8]	Activity [9]	inhibition [10]
CCN=C=S [ETHYL ISOTHIOCYANATE]	5.72 µg/mL (≈ 65.6 µM)	3.05 µg/mL (≈ 35 µM)	88.2%	66.9%	–	–	–	–	–	–	–
CCCCN=C=S [BUTYL ISOTHIOCYANATE]	–	–	58.6%	28.1%	–	–	–	–	–	–	–
CNC(=S)[S-].[Na+] [METAM SODIUM]	3.65 µg/mL	2.12 µg/mL	93.4%	72.2%	Active	–	–	–	–	–	–
C=CCN=C=S [ALLYL ISOTHIOCYANATE]	4.94 µg/mL (≈ 49.8 µM)	2.76 µg/mL (≈ 27.8 µM)	90.5%	70.1%	–	0.49 mL	Active	Active	Active	Active	Active
C=CC(=O)N=C=S [ACRYLOYL ISOTHIOCYANATE]	4.63 µg/mL (≈ 40.9 µM)	2.53 µg/mL (≈ 22.4 µM)	92.1%	71%	–	0.48 mL	Active	Active	Active	Active	Active
CC/C=C/N=C=S [BUTENYL ISOTHIOCYANATE]	–	–	49.9%	20.6%	–	–	–	–	–	–	–
S=C=NCCc1ccccc1 [PHENETHYLISOTHIOCYANATE]	6.96 µg/mL (≈ 42.6 µM)	4.15 µg/mL (≈ 25.4 µM)	79.6%	60.8%	–	–	–	–	–	–	–
CC(C)/C=C/N=C=S [ISOAMYLENE ISOTHIOCYANATE]	–	–	56.9%	27.4%	–	–	–	–	–	–	–
CC(C)N=C=S [ISOPROPYL ISOTHIOCYANATE]	–	–	42.9%	22.6%	–	–	–	–	–	–	–
CC(N=C=S)c1ccccc1 (centres undefined) [1-PHENYLETHYL ISOTHIOCYANATE]	8.14 µg/mL (≈ 49.9 µM)	4.24 µg/mL (≈ 26 µM)	76.6%	58.6%	–	–	–	–	–	–	–
N#CSCc1ccccc1 [BENZYL THIOCYANATE]	8.71 µg/mL (≈ 58.4 µM)	4.64 µg/mL (≈ 31.1 µM)	66.4%	30.1%	–	–	–	–	–	–	–
S=C=NCc1ccccc1 [BENZYL ISOTHIOCYANATE]	8.55 µg/mL (≈ 57.3 µM)	4.48 µg/mL (≈ 30 µM)	70.2%	32.2%	–	–	–	–	–	–	–
S=C=Nc1ccccc1 [PHENYLISOTHIOCYANATE]	–	–	58.2%	25.6%	–	–	–	–	–	–	–
CCCN=C=S [PROPYL ISOTHIOCYANATE]	–	–	40.2%	21.5%	–	–	–	–	–	–	–
CC(C)CC(=O)N=C=S [ISOVALERYL ISOTHIOCYANATE]	–	–	58.5%	26.4%	–	–	–	–	–	–	–
